The text below walks through data of patent US20230233538A1, “COMPOSITION FOR TREATING CORONAVIRUS DISEASE-19, COMPRISING PHENANTHROINDOLIZIDINE AND PHENANTHROQUI[…] DERIVATIVES, OPTICAL ISOMER THEREOF, OR PHARMACEUTICALLY ACCEPTABLE SALTS THEREOF AS ACTIVE INGREDIENT” (priority 2020, published 2023).

For orientation: CC50 means the concentration that lowers cell viability or growth by half.

Where two headings read alike, the source gives them in different places.

The test system of data set [1] is SARS-CoV-2. As to the kind of experiment: microbe, parasite or virus in culture. Particulars: for EC50: read-out: Effective Concentration 50 (EC50), 50% virus proliferation inhibitory concentration. It is filed as cell-based.
The subject of data set [2] is Vero CCL-81 cells.
Data set [3] is described as follows: in vitro. The conditions noted are these: African green monkey, Cytotoxic Concentration 50 (CC50).
Setting [4] is: Severe acute respiratory syndrome coronavirus 2, 48 h.

With `COc1ccc2c3c(c4cc(OC)c(OC)cc4c2c1)C[C@H]1CCCCN1C3` [cryptopleurin, reference compound], the EC50 in data set [1] is 11 nM.

`COc1cc2c3c(c4ccc(NS(C)(=O)=O)cc4c2cc1OC)CN1CCCC[C@@H]1C3` [Compound 2, (R)-N-(2,3-dimethoxy-11,12,13,14,14a,15-hexahydro-9H-dibenzo[f,h]pirido[1,2-b]isoquinolin-6-yl)methanesulfonamide]: in data set [1], the “fold greater effect (virus proliferation inhibitory ability) compared to Remdesivir” value is given as ~1,700 fold. Further, in data set [1] (setting [4]), the EC50 was determined as 13 nM. In addition, the “Selectivity Index (SI)” value in data set [2] is recorded as 10. Moreover, the midpoint of cytotoxicity in data set [3], the CC50, lay at 126 nM.

Take `COC(=O)Nc1ccc2c3c(c4cc(OC)c(OC)cc4c2c1)CC1CCCCN1C3` (centres unmarked) [Compound 3, methyl(2,3-dimethoxy-11,12,13,14,14a,15-hexahydro-9H-dibenzo[f,h]pirido[1,2-b]isoquinolin-6-yl)carbamate]: the “fold greater effect (virus proliferation inhibitory ability) compared to Remdesivir” value in data set [1] is recorded as ~1,300 fold. Further, the EC50 in data set [1] (setting [4]) came to 17 nM. For the same compound, the “Selectivity Index (SI)” value in data set [2] was 19. This compound gave a CC50 in data set [3] of 317 nM.

Take `CCC(CC)COC(=O)[C@H](C)N[P@](=O)(OC[C@H]1O[C@@](C#N)(c2ccc3c(N)ncnn23)[C@H](O)[C@@H]1O)Oc1ccccc1` [Remdesivir, reference compound]: the values for the EC50 in data set [1] (setting [4]) and in data set [1] were 22000 nM and 22100 nM, respectively. Moreover, in data set [2], the “Selectivity Index (SI)” value worked out at 7.8. In addition, the CC50 in data set [2] (African green monkey) and in data set [3] was 172000 nM throughout.

Turning to `COc1ccc2c3c(c4cc(OC)c(OC)cc4c2c1)C[C@H]1CCCN1C3` [antofine, reference compound], the EC50 in data set [1] was determined as 37 nM. Besides, the “Selectivity Index (SI)” value in data set [2] is on record as 24. The same compound had a CC50 in data set [3] of 872 nM.

For the compound `COc1cc2c3c(c4ccc(NS(C)(=O)=O)cc4c2cc1OC)CN1CCC[C@@H]1C3` [Compound 1, (R)-N-(2,3-dimethoxy-9,11,12,13,13a,14-hexahydrodibenzo-[f,h]pyrrolo[1,2-b]isoquinolin-6-yl)methanesulfonamide], the EC50 in data set [1] (setting [4]) is 35 nM. The “Selectivity Index (SI)” value in data set [2] was 52. In addition, in data set [3], the CC50 is 1820 nM.
